The nature of data set [1]: Solubility of free ATRA and PATRA in different solutions (UV absorbance of supernatant). The data set is classed as physicochemical. Here is the method:
Solubility was evaluated by bringing 2 mg/ml of ATRA either free or conjugated to PVA into equilibrium at room temperature for 1 hour, followed by centrifugation of the solution at 1,500 rpm for five minutes to remove undissolved precipitate. The supernatant from this process was then used for the testing of ATRA concentration via UV absorbance as previously described.

Data set [2] in a line: Uptake, retention and penetration of ATRA in pig skin, Franz diffusion cell. The data set is classed as in vitro ADME. As to the method:
Uptake, retention, and penetration of ATRA in pig skin were investigated using a Franz diffusion cell as described and known in the art. Skin was harvested from the flanks of adult female Yorkshire pigs 1 hour after sacrifice with subcutaneous fat removed. Skin was sectioned and frozen at −80° C. for up to six months prior to use. Skin was prepared for diffusion experiments by thawing in PBS for one hour after which time all hair on the skin was shaven off. Test samples of skin were cut to 30 mm×30 mm square samples and placed into the diffusion cell such that the top of the dermis faced a 3 mL testing retention reservoir and the underside faced a 15 mL penetration reservoir. […]
Samples were placed into the retention reservoir at a concentration of 0.1 mg/mL and followed for up to 12 hours. ATRA concentration was evaluated in both the retention and penetration reservoirs every four hours during this period via UV absorbance measurements. […] For both groups, the penetration reservoir was filled with a hydroalcoholic solution so that the ATRA that could penetrate the skin would be soluble for UV absorbance measurement. […]
Samples to be tested were placed into the retention reservoir at a concentration of 0.1 mg/mL and followed for up to 12 hours. ATRA concentration was evaluated in both the retention and penetration reservoirs every four hours during this period via UV absorbance measurements. […]

Another data set concerns Balb/CJ mouse. Description: Irritation after topical application to mouse dermis (digital imaging, H&E histology). The data set is classed as in vivo. To be noted: for gross appearance of treated skin: 10 μM ATRA dosing equivalent, topical.

Protocol for Balb/CJ mouse: Mice used for the assessment of irritation were given each of the two different treatments on 1 cm^2 regions of their dorsum, these included PATRA, ATRA, PVA, and PBS. A total of twelve mice were used in this assessment. 50 μL of 10 μM ATRA solution was placed on two 1 cm^2 shaved areas on the flanks of a Balb/CJ mouse on either side of midline. PATRA (0.092 mg mL^−1) and PVA (0.089 mg mL^−1) concentrations were controlled for 10 μM ATRA dosing. These solutions were rubbed into the skin using a cotton-tipped applicator for 30 seconds.
Tissues were fixed in zinc fixative without formalin for 48 hours. The excised tissues were cut on center and then embedded cut-face down in paraffin. Sections were taken at the wound center and at one further level of 500 μm reaching a total of 1 mm sampling length through the application site. At each level an H&E slide was stained. Unstained slides were also taken for potential IHC analysis of the tissue. All sections were 5 μm thick. Image analysis was performed using Image J.
To investigate the relative irritative nature of PATRA in comparison to ATRA, each was tested on the flanks of mice. Irritation was evaluated by digital imaging of the application site of ATRA, PATRA, or control solutions for up to five days post-application as well as by histological evaluation of inflammation after 5 days. In brief, 50 μL of 10 μM ATRA solution was placed on a 1 cm^2 shaved area on the flank of a Balb/CJ mouse. PATRA (0.092 mg mL^−1) and PVA (0.089 mg mL^−1) concentrations were controlled for 10 μM ATRA dosing. This solution is rubbed into the skin using a cotton-tipped applicator for 30 seconds. Each mouse received one of the four different material solutions applied in two locations. Inflammation and dermal changes subsequent to ATRA application were evaluated by both by digital imaging and by H&E histology.

Consider `CC1=C(/C=C/C(C)=C/C=C/C(C)=C/C(=O)O)C(C)(C)CCC1` [ATRA, All-trans retinoic acid], for which the “solubility, in words” value in data set [1] (PBS 1× (pH7.4)) and in data set [1] (deionized water) was “insoluble” each time. The “fraction of ATRA accumulated within the treated skin” value in data set [2] (12 hours of exposure, 0.1 mg/mL in retention reservoir, room temperature) turned out to be 1.9±0.9%. In data set [2] (every four hours up to 12 hours), the “ATRA in the receiving (penetration) reservoir, free ATRA versus PATRA” value is “much higher level of ATRA accumulation at every time point tested”. In addition, the “stratum corneum (SC) and epidermal thickness, histology” value in the data set with Balb/CJ mouse (after 5 days) is listed as “Significantly increased”. In addition, the “gross appearance of treated skin” value was “still has a rash-like quality with a thick and calloused appearance” in the data set on Balb/CJ mouse (five days post-application); “begins to appear inflamed after three days” in the data set on Balb/CJ mouse (three days post-application).

Source of the values: US11590240B2, “Nano-fibular nanoparticle polymer-drug conjugate for sustained dermal delivery of retinoids” (Massachusetts Institute of Technology, priority 2015, dated 2023).
